From PubChem BioAssay (NCI)
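Five compound concentrations were applied to cells in 96-well plates for 48 hours; endpoints were derived by simple linear interpolation of the resulting dose-response curve. At the GI50, growth is halved. TGI denotes the concentration required for complete inhibition of growth.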

Columns and labels:
Test in all cases: inhibition of tumour cell growth, NCI panel, 48 h
NCI-H522 lung = system: NCI-H522 lung
U251 CNS = system: U251 CNS
HCT-15 colon = system: HCT-15 colon
786-0 renal = system: 786-0 renal
A549 NSCLC = system: A549 NSCLC
SK-MEL-2 melanoma = system: SK-MEL-2 melanoma
OVCAR-8 ovarian = system: OVCAR-8 ovarian
SF-539 CNS = system: SF-539 CNS
M14 melanoma = system: M14 melanoma
LOX IMVI melanoma = system: LOX IMVI melanoma
SW-620 colon = system: SW-620 colon
A498 renal = system: A498 renal
SK-MEL-28 melanoma = system: SK-MEL-28 melanoma
KM12 colon = system: KM12 colon
SK-MEL-5 melanoma = system: SK-MEL-5 melanoma
MDA-MB-231 breast = system: MDA-MB-231 breast
RPMI-8226 leukemia = system: RPMI-8226 leukemia
OVCAR-5 ovarian = system: OVCAR-5 ovarian
SNB-75 CNS = system: SNB-75 CNS
UACC-62 melanoma = system: UACC-62 melanoma
MDA-MB-435 = system: MDA-MB-435
T-47D breast = system: T-47D breast
UACC-257 melanoma = system: UACC-257 melanoma
OVCAR-3 ovarian = system: OVCAR-3 ovarian
SF-268 CNS = system: SF-268 CNS
HL-60(TB) leukemia = system: HL-60(TB) leukemia
TK-10 renal = system: TK-10 renal
CCRF-CEM leukemia = system: CCRF-CEM leukemia
ACHN renal = system: ACHN renal
CAKI-1 renal = system: CAKI-1 renal
NCI-H226 lung = system: NCI-H226 lung
MALME-3M melanoma = system: MALME-3M melanoma
OVCAR-4 ovarian = system: OVCAR-4 ovarian
RXF 393 renal = system: RXF 393 renal
SF-295 CNS = system: SF-295 CNS
COLO 205 colon = system: COLO 205 colon
EKVX NSCLC = system: EKVX NSCLC
NCI-H23 lung = system: NCI-H23 lung
SNB-19 CNS = system: SNB-19 CNS
SN12C renal = system: SN12C renal
HCC-2998 colon = system: HCC-2998 colon
HOP-62 NSCLC = system: HOP-62 NSCLC
K-562 leukemia = system: K-562 leukemia
PC-3 prostate = system: PC-3 prostate
MCF7 breast = system: MCF7 breast
HS 578T breast = system: HS 578T breast
SK-OV-3 ovarian = system: SK-OV-3 ovarian
NCI/ADR-RES ovarian = system: NCI/ADR-RES ovarian
MOLT-4 leukemia = system: MOLT-4 leukemia
UO-31 renal = system: UO-31 renal
NCI-H460 lung = system: NCI-H460 lung
HOP-92 NSCLC = system: HOP-92 NSCLC
IGROV1 ovarian = system: IGROV1 ovarian
HT29 colon = system: HT29 colon
DU-145 prostate = system: DU-145 prostate
HCT-116 colon = system: HCT-116 colon

**Q.** What does the source list for `CCCOC(=O)CCn1c(SC)nc2[nH]cc(-c3ccccc3)c2c1=O`?
**A.** GI50 (NCI-H522 lung): 11 µM; TGI (NCI-H522 lung): 32.5 µM; GI50 (U251 CNS): 12.8 µM; TGI (U251 CNS): 87.4 µM; GI50 (HCT-15 colon): 37.7 µM; TGI (HCT-15 colon): > 100 µM; GI50 (786-0 renal): 2.71 µM; TGI (786-0 renal): > 100 µM; GI50 (A549 NSCLC): 15.8 µM; TGI (A549 NSCLC): 65.8 µM; GI50 (SK-MEL-2 melanoma): 25.5 µM; TGI (SK-MEL-2 melanoma): 63.5 µM; GI50 (OVCAR-8 ovarian): 20.5 µM; TGI (OVCAR-8 ovarian): > 100 µM; GI50 (SF-539 CNS): 24.9 µM; TGI (SF-539 CNS): > 100 µM; GI50 (M14 melanoma): 15.6 µM; TGI (M14 melanoma): > 100 µM; GI50 (LOX IMVI melanoma): 10.9 µM; TGI (LOX IMVI melanoma): 30.9 µM; GI50 (SW-620 colon): 28.3 µM; TGI (SW-620 colon): > 100 µM; GI50 (A498 renal): 27.9 µM; TGI (A498 renal): 87.9 µM; GI50 (SK-MEL-28 melanoma): 20.3 µM; TGI (SK-MEL-28 melanoma): 58.8 µM; GI50 (KM12 colon): 18.7 µM; TGI (KM12 colon): 53.8 µM; GI50 (SK-MEL-5 melanoma): 15.9 µM; TGI (SK-MEL-5 melanoma): 35.1 µM; GI50 (MDA-MB-231 breast): 38.3 µM; TGI (MDA-MB-231 breast): > 100 µM; GI50 (RPMI-8226 leukemia): 12.7 µM; TGI (RPMI-8226 leukemia): 33.6 µM; GI50 (OVCAR-5 ovarian): > 100 µM; TGI (OVCAR-5 ovarian): > 100 µM; GI50 (SNB-75 CNS): 13.4 µM; TGI (SNB-75 CNS): 57.6 µM; GI50 (UACC-62 melanoma): 11.7 µM; TGI (UACC-62 melanoma): 26.5 µM; GI50 (MDA-MB-435): 17.5 µM; TGI (MDA-MB-435): 38.5 µM; GI50 (T-47D breast): 11.7 µM; TGI (T-47D breast): 62 µM; GI50 (UACC-257 melanoma): 33.8 µM; TGI (UACC-257 melanoma): > 100 µM; GI50 (OVCAR-3 ovarian): 19.9 µM; TGI (OVCAR-3 ovarian): 54.1 µM; GI50 (SF-268 CNS): 14.5 µM; TGI (SF-268 CNS): > 100 µM; GI50 (HL-60(TB) leukemia): 1.77 µM; TGI (HL-60(TB) leukemia): 23.2 µM; GI50 (TK-10 renal): 47.3 µM; TGI (TK-10 renal): > 100 µM; GI50 (CCRF-CEM leukemia): 1.37 µM; TGI (CCRF-CEM leukemia): 35.1 µM; GI50 (ACHN renal): 22.2 µM; TGI (ACHN renal): 77.2 µM; GI50 (CAKI-1 renal): 19.6 µM; TGI (CAKI-1 renal): 54 µM; GI50 (NCI-H226 lung): 18.9 µM; TGI (NCI-H226 lung): 61.2 µM; GI50 (MALME-3M melanoma): 18.5 µM; TGI (MALME-3M melanoma): 51.8 µM; GI50 (OVCAR-4 ovarian): 29.2 µM; TGI (OVCAR-4 ovarian): 95.8 µM; GI50 (RXF 393 renal): 19.1 µM; TGI (RXF 393 renal): 54.8 µM; GI50 (SF-295 CNS): 11.1 µM; TGI (SF-295 CNS): 52.4 µM; GI50 (COLO 205 colon): 19.1 µM; TGI (COLO 205 colon): 46.5 µM; GI50 (EKVX NSCLC): 33.9 µM; TGI (EKVX NSCLC): > 100 µM; GI50 (NCI-H23 lung): 8.34 µM; TGI (NCI-H23 lung): 43 µM; GI50 (SNB-19 CNS): 31.7 µM; TGI (SNB-19 CNS): > 100 µM; GI50 (SN12C renal): 20.1 µM; TGI (SN12C renal): > 100 µM; GI50 (HCC-2998 colon): 73.5 µM; TGI (HCC-2998 colon): > 100 µM; GI50 (HOP-62 NSCLC): 5.49 µM; TGI (HOP-62 NSCLC): 88.2 µM; GI50 (K-562 leukemia): 3.95 µM; TGI (K-562 leukemia): 43.1 µM; GI50 (PC-3 prostate): 14.6 µM; TGI (PC-3 prostate): 50.1 µM; GI50 (MCF7 breast): 19.7 µM; TGI (MCF7 breast): > 100 µM; GI50 (HS 578T breast): 28.1 µM; TGI (HS 578T breast): > 100 µM; GI50 (SK-OV-3 ovarian): 38.3 µM; TGI (SK-OV-3 ovarian): > 100 µM; GI50 (NCI/ADR-RES ovarian): 25.4 µM; TGI (NCI/ADR-RES ovarian): > 100 µM; GI50 (MOLT-4 leukemia): 1.16 µM; TGI (MOLT-4 leukemia): 15.1 µM; GI50 (UO-31 renal): 23.9 µM; TGI (UO-31 renal): 75.5 µM; GI50 (NCI-H460 lung): 13.4 µM; TGI (NCI-H460 lung): > 100 µM; GI50 (HOP-92 NSCLC): 3.64 µM; TGI (HOP-92 NSCLC): 40.4 µM; GI50 (IGROV1 ovarian): 13.5 µM; TGI (IGROV1 ovarian): 49.6 µM; GI50 (HT29 colon): 15.5 µM; TGI (HT29 colon): 61.6 µM; GI50 (DU-145 prostate): 27.8 µM; TGI (DU-145 prostate): > 100 µM; GI50 (HCT-116 colon): 15.4 µM; TGI (HCT-116 colon): 41 µM
